Data taken from patent US20220380574A1, “DUAL-FUNCTION MELT ADDITIVES” (3M INNOVATIVE PROPERTIES COMPANY, priority 2019, published 2022).

Test system: S. aureus ATCC 6538
Experiment: Modified AATCC Method 100, antibacterial activity of nonwoven BMF webs (viable cell count after 24 hrs)
Type: cell-based
Conditions: statement in words on the additive in electret webs
Excerpt: Besides the charge-enhancing properties, the charge-enhancing additives also provide anti-microbial properties. Antimicrobials are agents that kill microorganisms or stops their growth. Antimicrobials work at a cellular level to continually disrupt and prevent the growth of microorganisms. By creating an inhospitable environment for microorganisms like bacteria, mold and mildew, antimicrobials protect everyday products like countertops, toys, surface coatings, textiles and hospital equipment. The antimicrobial activity of the current charge-enhancing additives in electret webs can be measured in a variety of different ways. One particularly suitable measurement technique is the standard test method of “Modified AATCC Method 100—Assessment of Antibacterial Finishes on Textile Materials” was used for the nonwoven webs performance test. This method is used to evaluate the antibacterial activity of textile products treated with antibacterial finish, which is suitable for nonwoven hydrophobic fabric webs. Details of the test method are provided in the Examples section, below. The standard test method of “Modified AATCC Method 100—Assessment of Antibacterial Finishes on Textile Materials” was used for the nonwoven webs performance test. […] Viable cell count of S. Aureus ATCC 6538 on BMF web after 24 hrs were measured.

## c1ccc(-c2nc3ccccc3[nH]2)cc1 [CA-4, 2-Phenylbenzimidazole]
  combination of charge-enhancing and anti-microbial properties: do not have this combination of properties
